Test results as given in patent publication US6784201B2, “Benzothiepines having activity as inhibitors of ileal bile acid transport and taurocholate uptake” (G.D. Searle & Company, priority 1994, dated 2004).
Structures can show the parent of a compound that is named as a salt. Where two headings read alike, the source gives them in different places.

Experiments:
[1] = test system: fecal bile acid (FBA); assay: Rat gavage assay (fecal bile acid increase); format: in vivo
Experimental: Male Wister rats (275-300 g) are administered IBAT inhibitors using an oral gavage procedure. Drug or vehicle (0.2% Tween 80 in water) is administered once a day (9:00-10:0 a.m.) for 4 days at varying dosages in a final volume of 2 mL per kilogram of body weight. Total fecal samples are collected during the final 48 hours of the treatment period and analyzed for bile acid content using an enzymatic assay as described below. Compound efficacy is determined by comparison of the increase in fecal bile acid (FBA) concentration in treated rats to the mean FBA concentration of rats in the vehicle group.
Measurement of Fecal Bile Acid Concentration (FBA)
Total fecal output from individually housed hamsters was collected for 24 or 48 hours, dried under a stream of nitrogen, pulverized and weighed. Approximately 0.1 gram was weighed out and extracted into an organic solvent (butanol/water). Following separation and drying, the residue was dissolved in methanol and the amount of bile acid present was measured enzymatically using the 3α-hydroxysteroid steroid dehydrogenase reaction with bile acids to reduce NAD. (Reference: Mashige, F., et al. (1981) Clin. Chem. 27, 1352).

[2] = target: T1, human IBAT (Homo sapiens, UniProt Q12908); assay: In vitro assay of IBAT-mediated uptake of [14C]-taurocholate (TC) in H14 cells; format: cell-based; settings: for IC50: read-out: Human TC IC50; for In vitro % Inhibition of TC Uptake: 50 μM
T1 construct: expressed in transfected cells; host or cells: Baby hamster kidney (BHK) cells, clone H14
T1 sequence (Q12908 1-348): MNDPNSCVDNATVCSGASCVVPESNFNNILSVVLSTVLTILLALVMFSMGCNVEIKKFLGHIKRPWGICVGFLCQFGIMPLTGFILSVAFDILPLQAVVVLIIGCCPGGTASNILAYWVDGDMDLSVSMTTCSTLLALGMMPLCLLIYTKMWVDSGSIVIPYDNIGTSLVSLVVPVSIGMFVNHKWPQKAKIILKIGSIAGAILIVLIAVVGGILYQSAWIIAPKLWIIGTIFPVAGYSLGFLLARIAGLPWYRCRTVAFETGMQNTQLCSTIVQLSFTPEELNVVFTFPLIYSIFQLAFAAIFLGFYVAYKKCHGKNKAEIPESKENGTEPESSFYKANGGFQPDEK
Summary of the method: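 BHK cells stably expressing human IBAT (H14) were incubated 2 h at 37° C with compound and 3 μM final [14C]-taurocholate in DMEM (4.5 g/L glucose) plus 0.2% fatty acid-free BSA. After cold PBS washes, cell-associated radioactivity was measured by scintillation counting.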

[3] = In Vitro Taurocholate Uptake, Table 10

CCCCC1(CCCC)CS(=O)(=O)c2ccc(N(C)C)cc2[C@@H](c2ccc(OCc3ccc(CN(CC(=O)O)CC(=O)O)cc3)cc2)[C@H]1O (relative stereo) [Example 1427]
Delta (micromoles fecal bile acid per day) ([1]; dose 2 mg/kg/day): 36.7 micromoles fecal bile acid per day | Delta (micromoles fecal bile acid per day) ([1]; dose .016 mg/kg/day): 13.8 micromoles fecal bile acid per day | Delta (micromoles fecal bile acid per day) ([1]; dose .08 mg/kg/day): 27.3 micromoles fecal bile acid per day | Delta (micromoles fecal bile acid per day) ([1]; dose .4 mg/kg/day): 35.8 micromoles fecal bile acid per day | IC50 [2, 3]: 2 nM

CCCCC1(CCCC)CS(=O)(=O)c2ccc(N(C)C)cc2C(c2cccc(OCCOCCOCC[n+]3ccccc3)c2)C1O (stereo not drawn) [Example 1355]
IC50 [2]: 1.5 nM

CCCCC1(CCCC)CS(=O)(=O)c2ccc(N(C)C)cc2C(c2ccc[n+](C)c2)C1O (stereo not drawn) [Example 1356]
IC50 [2]: 220 nM

CCCCC1(CCCC)CS(=O)(=O)c2ccc(N(C)C)cc2C(c2cccc(OCCOCCOCC[P+](CC)(CC)CC)c2)C1O (stereo not drawn) [Example 1358]
IC50 [2]: 8 nM

CCCCC1(CCCC)CS(=O)(=O)c2ccc(N(C)C)cc2C(c2cccc(OCCOCCOCC[n+]3ccn(Cc4ccccc4)c3)c2)C1O (stereo not drawn) [Example 1359]
IC50 [2]: 14 nM

CCCCC1(CCCC)CS(=O)(=O)c2ccc(N(C)C)cc2C(c2cccc(OCCOCCOCC[n+]3nnn4c3CCCCC4)c2)C1O (stereo not drawn) [Example 1360]
IC50 [2]: 3 nM

CCCCC1(CCCC)CS(=O)(=O)c2ccc(N(C)C)cc2C(c2cccc(OCCOCCOCC[n+]3cccn3-c3ccccc3)c2)C1O (stereo not drawn) [Example 1361]
IC50 [2]: 4 nM

CCCCC1(CCCC)CS(=O)(=O)c2ccc(N(C)C)cc2C(c2cccc(OCCOCCOCC[N+](CC)(CC)CCC(=O)O)c2)C1O (stereo not drawn) [Example 1362]
IC50 [2]: 19 nM

CCCCC1(CCCC)CS(=O)(=O)c2ccc(N(C)C)cc2C(c2cccc(OCCOCCOCC[N+](CC)(CC)CCNS(=O)(=O)N(C)C)c2)C1O (stereo not drawn) [Example 1363]
IC50 [2]: 8 nM

CCCCC1(CCCC)CS(=O)(=O)c2ccc(N(C)C)cc2C(c2cccc(OCCOCCOCC[N+](CC)(CC)CCNC(N)=O)c2)C1O (stereo not drawn) [Example 1364]
IC50 [2]: 6 nM

CCCCC1(CCCC)CS(=O)(=O)c2ccc(N(C)C)cc2C(c2cccc(OCCOCCOCC[N+](CC)(CC)CCNS(=O)(=O)c3ccccc3)c2)C1O (stereo not drawn) [Example 1365]
IC50 [2]: 8 nM

CCCCC1(CCCC)CS(=O)(=O)c2ccc(N(C)C)cc2C(c2ccc(OCCCC[n+]3ccc(C(=O)OC)cc3)c(F)c2)C1O (stereo not drawn) [Example 1366]
IC50 [2]: 15 nM

CCCCC1(CCCC)CS(=O)(=O)c2ccc(N(C)C)cc2C(c2cccc(OCCOCCOCC[n+]3ccn(CC)c3)c2)C1O (stereo not drawn) [Example 1367]
IC50 [2]: 2 nM

CCCCC1(CCCC)CS(=O)(=O)c2ccc(N(C)C)cc2C(c2cccc(OCCOCCOCC[n+]3c(C)cc(C)cc3C)c2)C1O (stereo not drawn) [Example 1368]
IC50 [2]: 5 nM

CCCCC1(CCCC)CS(=O)(=O)c2ccc(N(C)C)cc2C(c2cccc(OCCOCCOCC[n+]3ccccc3-c3ccccc3)c2)C1O (stereo not drawn) [Example 1369]
IC50 [2]: 5 nM

CCCCC1(CCCC)CS(=O)(=O)c2ccc(N(C)C)cc2C(c2cccc(OCCOCCOCC[N+](C)(C)C3CC(C)(C)N(C)C(C)(C)C3)c2)C1O (stereo not drawn) [Example 1370]
IC50 [2]: 2 nM

CCCCC1(CCCC)CS(=O)(=O)c2ccc(N(C)C)cc2C(c2cccc(OCCOCCOCC[N+](CC)(CC)CC#N)c2)C1O (stereo not drawn) [Example 1371]
IC50 [2]: 4 nM

CCCCC1(CCCC)CS(=O)(=O)c2ccc(N(C)C)cc2C(c2cccc(OCCOCCOCC[N+](CC)(CC)CCNC(=O)N(C)C)c2)C1O (stereo not drawn) [Example 1372]
IC50 [2]: 4 nM

CCCCC1(CCCC)CS(=O)(=O)c2ccc(N(C)C)cc2C(c2cccc(OCCOCCOCC[N+](CC)(CC)CCNP(C)(=O)c3ccccc3)c2)C1O (stereo not drawn) [Example 1373]
IC50 [2]: 8 nM

CCCCC1(CCCC)CS(=O)(=O)c2ccc(N(C)C)cc2C(c2cccc(OCCOCCOCC[N+](CC)(CC)CCNC(=O)c3ccccc3)c2)C1O (stereo not drawn) [Example 1374]
IC50 [2]: 7 nM

C=C(C)C(=O)OCC[N+](CC)(CC)CCOCCOCCOc1cccc(C2c3cc(N(C)C)ccc3S(=O)(=O)CC(CCCC)(CCCC)C2O)c1 (stereo not drawn) [Example 1375]
IC50 [2]: 2 nM

CCCCC1(CCCC)CS(=O)(=O)c2ccc(N(C)C)cc2[C@@H](c2ccc(OCC(=O)NCC(=O)O)cc2)[C@H]1O [Example 1403]
Delta (micromoles fecal bile acid per day) ([1]; dose 2 mg/kg/day): 41.6 micromoles fecal bile acid per day | Delta (micromoles fecal bile acid per day) ([1]; dose .016 mg/kg/day): 3 micromoles fecal bile acid per day | Delta (micromoles fecal bile acid per day) ([1]; dose .08 mg/kg/day): 11.9 micromoles fecal bile acid per day | Delta (micromoles fecal bile acid per day) ([1]; dose .4 mg/kg/day): 35.2 micromoles fecal bile acid per day | IC50 [2, 3]: 23 nM

CCCCC1(CCCC)CS(=O)(=O)c2ccc(N(C)C)cc2[C@@H](c2ccc(OCCCCC(=O)O)cc2)[C@H]1O [Example 1404, (4R-cis)-5-[4-[3,3-Dibutyl-7-(dimethylamino)-2,3,4,5-tetrahydro-4-hydroxy-1,1-dioxido-1-benzothiepin-5-yl]phenoxy]pentanoic Acid]
Delta (micromoles fecal bile acid per day) ([1]; dose 5 mg/kg/day): 93.7 micromoles fecal bile acid per day | Delta (micromoles fecal bile acid per day) ([1]; dose .04 mg/kg/day): 33.5 micromoles fecal bile acid per day | Delta (micromoles fecal bile acid per day) ([1]; dose .2 mg/kg/day): 59.1 micromoles fecal bile acid per day | IC50 [2, 3]: 10 nM

CCCCC1(CCCC)CS(=O)(=O)c2ccc(N(C)C)cc2[C@@H](c2ccc(OCCC[N+]34CCN(CC3)CC4)cc2)[C@H]1O [Example 1407, (4R-cis)-1-[3-[4-[3,3-Dibutyl-7-(dimethylamino)-2,3,4,5-tetrahydro-4-hydroxy-1,1-dioxido-1-benzothiepin-5-yl]phenoxy]propyl]-4-aza-1-azoniabicyclo[2.2.2]octane, 4-methylbenzenesulfonate (Salt)]
IC50 [2, 3]: 3 nM

CCCCC1(CCCC)CS(=O)(=O)c2ccc(N(C)C)cc2[C@@H](c2ccc(OCCCC[N+]34CCN(CC3)CC4)cc2)[C@H]1O [Example 1408, (4R-cis)-1-[4-[4-[3,3-Dibutyl-7-(dimethylamino)-2,3,4,5-tetrahydro-4-hydroxy-1,1-dioxido-1-benzothiepin-5-yl]phenoxy]butyl]-4-aza-1-azoniabicyclo [2.2.2]octanemethanesulfonate (Salt)]
IC50 [2, 3]: 1 nM

CCCCC1(CCCC)CS(=O)(=O)c2ccc(N(C)C)cc2[C@@H](c2ccc(OCCCC[N+]34CCN(CC3)CC4)cc2)[C@H]1O [Example 1409, (4R-cis)-1-[4-[4-[3,3-Dibutyl-7-(dimethylamino)-2,3,4,5-tetrahydro-4-hydroxy-1,1-dioxido-1-benzothiepin-5-yl]phenoxy]butyl]-4-aza-1-azoniabicyclo[2.2.2]octane-4-methylbenzenesulfonate (Salt)]
IC50 [2, 3]: 0.9 nM

CCCCC1(CCCC)CS(=O)(=O)c2ccc(N(C)C)cc2[C@@H](c2ccc(OCCCCC[n+]3cccc4ccccc43)cc2)[C@H]1O [Example 1412, (4R-cis)-1-[5-[4-[3,3-Dibutyl-7-(dimethylamino)-2,3,4,5-tetrahydro-4-hydroxy-1,1-dioxido-1-benzothiepin-5-yl]phenoxy]pentyl]quinolinium, methanesulfonate (Salt)]
IC50 [2, 3]: 3 nM

CCCCC1(CCCC)CS(=O)(=O)c2ccc(N(C)C)cc2[C@@H](c2ccc(OCc3cc[n+](C)cc3)cc2)[C@H]1O [Example 1428, (4R-cis)-4-[[4-[3,3-Dibutyl-7-(dimethylamino)-2,3,4,5-tetrahydro-4-hydroxy-1,1-dioxido-1,1-dioxido-1-benzothiepin-5-yl]phenoxy]methyl]-1-methylpyridinium salt with trifluoroacetic acid (1:1)]
IC50 [2, 3]: 0.7 nM

CCCCC1(CCCC)CS(=O)(=O)c2ccc(N(C)C)cc2[C@@H](c2ccc(OCc3cccc(CN(CC(=O)O)CC(=O)O)n3)cc2)[C@H]1O [Example 1431, (4R-cis)-N-(Carboxymethyl)-N-[[6-[[4-[3,3-dibutyl-7-(dimethylamino)-2,3,4,5-tetrahydro-4-hydroxy-1,1-dioxido-1-benzothiepin-5-yl]phenoxy]methyl]-2-pyridinyl]methyl]glycine]
IC50 [2, 3]: 5 nM

cis-4-Hydroxy-5-phenyl-2,3,4,5-tetrahydro spiro(benzothiepine-3,1′-cyclohexane)-1,1-dioxide [Example 60]
In vitro % Inhibition of TC Uptake [2]: 41%

trans-4-Hydroxy-5-phenyl-2,3,4,5-tetrahydro spiro(benzothiepine-3,1′-cyclohexane)-1,1-dioxide [Example 59]
In vitro % Inhibition of TC Uptake [2]: 96%
